Data set [1] deals with T1, Human CYP8B1 (Homo sapiens, UniProt Q9UNU6).
T1 sequence (Q9UNU6 1-501): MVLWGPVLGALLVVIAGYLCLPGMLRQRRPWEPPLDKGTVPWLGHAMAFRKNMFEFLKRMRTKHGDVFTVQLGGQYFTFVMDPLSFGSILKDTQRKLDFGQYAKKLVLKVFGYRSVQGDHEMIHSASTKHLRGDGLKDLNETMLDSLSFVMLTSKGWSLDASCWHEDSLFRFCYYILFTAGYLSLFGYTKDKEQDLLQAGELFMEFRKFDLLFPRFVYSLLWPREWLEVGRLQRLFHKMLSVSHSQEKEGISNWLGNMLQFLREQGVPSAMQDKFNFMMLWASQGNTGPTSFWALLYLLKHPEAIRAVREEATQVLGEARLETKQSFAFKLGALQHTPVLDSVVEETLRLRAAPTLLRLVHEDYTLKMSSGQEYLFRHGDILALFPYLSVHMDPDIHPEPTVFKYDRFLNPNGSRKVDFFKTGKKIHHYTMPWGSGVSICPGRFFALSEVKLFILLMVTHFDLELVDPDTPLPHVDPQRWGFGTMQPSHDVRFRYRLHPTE
Protocol: (§1) To a 384 well polypropylene plate (Corning 3656), 250 nl of inhibitor in 100% DMSO (1.25% final DMSO concentration) was pre-plated using an Echo liquid handler (Labcyte Inc.). Human liver microsomes (Xenotech) were diluted in of 0.1 M phosphate buffer, pH 7.4, at a concentration of 65 μg/ml and 15 μL was added to the 384 well plate. The plates were incubated at ambient room temperature for 30 minutes. After pre-incubation with inhibitor, the reaction was initiated by adding 5 μl of substrate solution (4.0 μM 7a-hydroxy-4-cholesten-3-one (Toronto Research Chemicals), 2 mM of NADPH (Sigma), 0.1 M phosphate buffer (pH 7.4). The reaction was carried out for 45 minutes at ambient room temperature and was quenched by the addition of 50 μl of acetonitrile+0.1% vol/vol formic acid (FA)+300 nM 7α-hydroxy-4-cholesten-3-one-d7 (Toronto Research Chemicals). The plates were sealed and centrifuged at 3000 rpm for 5 minutes. Plates were loaded onto the Agilent RapidFire RF300 HTMS system, wherein samples were sipped for 600 ms, and the sip sensor detection signals the diversion of sample from the loop onto a C4 solid phase extraction (SPE) cartridge, where salts are washed off for 2500 ms with a mobile phase of water with 0.1% vol/vol FA at a flow rate of 1.5 ml/min. The column path was switched, and the sample was eluted off the cartridge and flowed into the mass spectrometer for 3000 ms with a mobile phase of acetonitrile and 0.1% vol/vol FA at a flow rate of 1.25 ml/min. The aspirator tip was washed separately with water and acetonitrile between sample aspirations (each for 600 ms) to minimize carryover contamination. Mass spectrometry was carried out using a Sciex API4000 triple quadrupole mass spectrometer (Applied Biosystems, Concord, ON, Canada) equipped with electrospray ionization (ESI) operated in the positive-ion mode. The product 7α,12α-dihydroxy-4-cholesten-3-one and internal standard 7α-hydroxy-4-cholsten-3-one-d7 were detected using multiple reaction monitoring (MRM) with Q1/Q3 transitions at m/z 417.3 to 381.3 and m/z 408.3 to 390.3, respectively, with a dwell time of 100 ms and a collision energy of 24 V for each transition. The mass spectrometer used an ESI voltage of 5000 V and a source temperature of 650° C. Extracted ion chromatograms for each transition were integrated and processed using the RapidFire Integrator software. The data for each well were normalized by monitoring product conversion with the ratio of AUCproduct/(AUCinternal standard). The data was then fitted to a four parameter logistic fit using ActivityBase Software to calculate an IC50 of the inhibitor.

Data set [2] deals with T1, Human CYP8B1. The experiment in a line: Human CYP8B1 Liver Microsome Assay. The note with it: Human CYP8B1 IC50, human liver microsomes; substrate 7a-hydroxy-4-cholesten-3-one, NADPH; RapidFire MS detection of 7α,12α-dihydroxy-4-cholesten-3-one.
Protocol: as §1

Where two headings read alike, the source gives them in different places.

What is called IC50 is the concentration needed to halve the response being measured. Low values mean greater potency, high ones weaker potency. “6-chloro-4-[(3S,4S)-4-(6,7-dihydro[1,2,3]triazolo[1,5-a]pyrazin-5-(4H)-ylcarbonyl)-3-methylpiperidin-1-yl]-2-methylquinoline-3-carbonitrile [Example 94]”: the IC50 on Human CYP8B1 [1] worked out at 4500 nM.

In turn, `C[C@@H]1CN(c2c(C#N)cnc3cnc(F)cc23)CC[C@@H]1C(=O)N1CCn2c(nnc2C(F)(F)F)C1` [Example 31, 6-fluoro-4-[(3S,4S)-3-methyl-4-{[3-(trifluoromethyl)-5,6-dihydro[1,2,4]triazolo[4,3-a]pyrazin-7(8H)-yl]carbonyl}piperidin-1-yl]-1,7-naphthyridine-3-carbonitrile] returned an IC50 against Human CYP8B1 [2] of 2.6 nM. That is a single-digit nanomolar value.

Source of the values: US10414774B2, “Compound useful for altering the levels of bile acids for the treatment of diabetes and cardiometabolc disease” (Merck Sharp & Dohme Corp., priority 2016, dated 2019).
